Tests used:
[1] = target: T1, glutamine-binding protein (GlnBP) (Escherichia coli, UniProt P0AEQ3); assay: Isothermal titration calorimetry (ITC, this work); parameters: species or system E. coli; conditions: 20°C, read-out: K D (ITC, this work)
T1 construct: Uniprot entry P0AEQ3, residues 23–248; made in house; host or cells: E. coli BL21(DE3)
Description: (§1) All ITC measurements were conducted on a Malvern MicroCal PEAQ ITC at 20°C with stirring at 200 rev min^−1 using the same buffer as in SAXS measurements. The cell was initially loaded with 200 µl of 20 µM protein with an initial ligand concentration of 200 µM in the syringe to quantify His:HisBP binding. This was further adjusted in subsequent runs to resolve weaker interactions as necessary.

[2] = target: T1, glutamine-binding protein (GlnBP); assay: SAXS-based ligand titration; parameters: species or system E. coli; conditions: ESRF, 3.0 × 10^12 photons, GlnBP 80 µM; 'no change' = no significant changes in scattering curves
Description: Their preliminary results have been excluded from this report.

[3] = target: HisBP; parameters: method as in Paul et al. (2016); conditions: ref Paul et al. (2016), read-out: K D (ITC, literature); cited from earlier work
[4] = target: GlnBP; parameters: method as in Clifton & Jackson (2016); conditions: ref Clifton & Jackson (2016), read-out: K D (ITC, literature); cited from earlier work
[5] = target: T2, histidine-binding protein (HisBP) (Escherichia coli, UniProt P0AEU0); assay: biochemical
Description: as §1

[6] = target: T2, histidine-binding protein (HisBP); assay: biochemical; remark: listed apart in the source
Description: Titrations were conducted at fixed protein concentrations to exclude signal-to-noise factors. An initial mass concentration of 2.0 or 4.0 mg ml^−1 was employed in prospective experiments, then scaled to 2.0, 1.0, 0.5 and 0.25 mg ml^−1 in later concentration-variation studies. […] A total of eight beamline experiments were conducted, using the automated sample changing environments available on site, operated in constant-flow mode: three times at ESRF BM29, three at DESY P12, once at Australian Synchrotron SAXS/WAXS and once at Diamond B21. […] Furthermore, experiments at ESRF BM29 and Diamond B21 were carried out on site, while the DESY P12 experiment was carried out by mail-in. For these measurements, samples were prepared by pipetting ligand–protein mixtures onto 96-well plates prior to transport. As for the Australian Synchrotron measurements, apo–HisBP was lyophilized in its final buffer and reconstituted on site using pure H2O and then mixed with the ligands in 96-well plates.
Buffer-subtracted intensities provided from respective synchrotron pipelines were used as starting points for analysis. […] Thus, an intermediate value of 7.2 nm was fixed for all computations involving D max including V R.
This was used to assist in locating data points affected by sample handling errors or measurement failures, along with detectable aggregation. The ideal minimum angle after removal of parasitic scattering is 0.1–0.15 nm^−1, although a more conservative cutoff was used to collectively eliminate residual aggregation. The maximum usable q was determined by visual inspection of noise. The final ranges used across all HisBP beamline sessions were: 0.2–2.0 nm^−1 at 20 µM and below, 0.25–2.5 nm^−1 at 40 µM, and 0.3–3 nm^−1 above 80 µM. The q-ranges for DEBP and GlnBP were set to 0.1–2.8 nm^−1.
A common scattering reference is created per HisBP concentration and per beamline experiment by averaging apo protein replicates after discarding outliers. This reference is used for both V R and χlin computations.
To fit binding curves against metrics, we consider all titrations conducted per protein concentration per beamline experiment as a single set, after removing data points resulting from aggregation, preparation errors or measurement errors. […] Since the two-state binding curve at constant [R] cannot effectively discriminate between K D values much larger or smaller than [R], fitted K D values are limited to within four orders of magnitude of the receptor concentration (cf. Fig. S1). […] Error bars indicate σ of logK D from the ensemble of replicate predictions. For metrics where uncertainty was not computed (V R and V P), the uncertainty was estimated by single-point removal, where K D was recomputed after removal of each titration point. The σ of the resulting replicates are taken as the σ of logK D. To eliminate cases where the fitting process fails due to ill-constrained parameters, replicates were discarded if the fitted apo–holo differences were >3σ from the mean value of all replicates.

[7] = target: T2, histidine-binding protein (HisBP); assay: NMR chemical shift perturbation titration; parameters: Uniprot entry P0AEU0, residues 23–260; His6 tag with TEV cleavage site (N, cleaved yes); made in house; host or cells: E. coli BL21(DE3); species or system E. coli; conditions: HisBP 200 µM, 298 K, chemical shift perturbations; read-out: K D (NMR)
Description: All NMR experiments have been carried out at 298 K on an 800 MHz Bruker Avance III NMR spectrometer equipped with a cryogenic probehead. […] Data were processed with NMRpipe (Delaglio et al., 1995[▸]), analyzed using NMRFAM-Sparky (Lee et al., 2015[▸]) and visualized with Python modules nmrglue and matplotlib (Helmus & Jaroniec, 2013[▸]; Hunter, 2007[▸]).
Backbone assignments of apo- and His-bound HisBP have been derived from BMRB entries 19242 and 19245 (Chu et al., 2013[▸]). The assignment of Arg-bound HisBP is produced by extending the apo-HisBP assignment along titrations, leaving sites in slow exchange unassigned. For affinity computations based on chemical shift perturbations, ^1H and ^15N shifts have been combined to a composite shift δ = [(δH)^2 + (0.2δN)^2]^1/2. The derivation of an overall dissociation constant from chemical shift perturbations follows the work by Williamson (2013[▸]), where the shift in peak position is used to derive free and bound populations without considering peak intensities. The effect of site-specific exchange rates upon peak positions is taken into account (London, 1993[▸]). We discarded residues with either insignificant shifts at saturation (δ < 0.05) or which were in slow exchange such that peak positions alone were no longer informative. […]

T2 sequence (P0AEU0 23-260): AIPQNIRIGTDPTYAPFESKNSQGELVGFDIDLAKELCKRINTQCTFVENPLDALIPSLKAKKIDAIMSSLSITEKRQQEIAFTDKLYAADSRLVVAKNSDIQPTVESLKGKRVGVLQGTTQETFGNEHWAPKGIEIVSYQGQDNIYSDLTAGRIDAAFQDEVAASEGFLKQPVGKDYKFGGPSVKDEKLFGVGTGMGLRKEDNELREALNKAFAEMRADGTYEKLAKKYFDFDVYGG
T1 sequence (P0AEQ3 23-248): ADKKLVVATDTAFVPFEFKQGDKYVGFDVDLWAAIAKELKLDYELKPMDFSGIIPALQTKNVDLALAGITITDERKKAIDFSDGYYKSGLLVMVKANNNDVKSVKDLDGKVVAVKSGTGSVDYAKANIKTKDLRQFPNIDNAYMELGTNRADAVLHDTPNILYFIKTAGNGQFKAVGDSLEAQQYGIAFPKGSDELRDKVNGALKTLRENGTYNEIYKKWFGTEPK

## N=C(N)NCCC[C@H](N)C(=O)O [Arg, arginine]
[1]
  Kd: 78.9 ± 8.6 µM
[2]
  K D derived from V R titration curves (result in words): No change
[3]
  Kd: 3 ± 1 µM
[4]
  Kd: 93.8 ± 7.4 µM
[5]
  Kd: 2.06 ± 0.22 µM
[6]; K D fitted to SAXS V R titration curves, AustSynch, 20s exposure, […] 10^13 photons, HisBP 19 µM
  Kd: 2.8 ± 0.31 µM
[6]; K D fitted to SAXS V R titration curves, AustSynch, 20s exposure, […] 10^13 photons, HisBP 38 µM
  Kd: 3 ± 1.4 µM
[6]; K D fitted to SAXS V R titration curves, AustSynch, 20s exposure, […] 10^13 photons, HisBP 76 µM
  Kd: 5.5 ± 1.4 µM
[6]; K D fitted to SAXS V R titration curves, DESY, 4s exposure, […] 10^13 photons, HisBP 20 µM
  Kd: 33 ± 4.5 µM
[6]; K D fitted to SAXS V R titration curves, DESY, 4s exposure, […] 10^13 photons, HisBP 40 µM
  Kd: 74 ± 19 µM
[6]; K D fitted to SAXS V R titration curves, DESY, 4s exposure, […] 10^13 photons, HisBP 80 µM
  Kd: 5.9 ± 0.6 µM
[6]; K D fitted to SAXS V R titration curves, Diamond, 40s exposure, […] 10^14 photons, HisBP 10 µM
  Kd: 0.37 ± 0.14 µM
[6]; K D fitted to SAXS V R titration curves, Diamond, 40s exposure, […] 10^14 photons, HisBP 20 µM
  Kd: 0.92 ± 0.11 µM
[6]; K D fitted to SAXS V R titration curves, Diamond, 40s exposure, […] 10^14 photons, HisBP 40 µM
  Kd: 4.8 ± 0.48 µM
[6]; K D fitted to SAXS V R titration curves, Diamond, 40s exposure, […] 10^14 photons, HisBP 80 µM
  Kd: 7.3 ± 1.9 µM
[6]; K D fitted to SAXS V R titration curves, ESRF, 5s exposure, 3.0 × 10^12 photons, HisBP 38 µM
  Kd: 2 ± 1.9 µM
[6]; K D fitted to SAXS V R titration curves, ESRF, 5s exposure, 3.0 × 10^12 photons, HisBP 160 µM
  Kd: 0.71 ± 1 µM
[6]; KD fitted to SAXS Rg curves, AustSynch, 20s exposure, HisBP 19 µM
  Kd: 7.7 ± 2 µM
[6]; KD fitted to SAXS Rg curves, AustSynch, 20s exposure, HisBP 38 µM
  Kd: 0.052 ± 0.04 µM
[6]; KD fitted to SAXS Rg curves, AustSynch, 20s exposure, HisBP 76 µM
  Kd: 1.6 µM
[6]; KD fitted to SAXS Rg curves, DESY, 4s exposure, HisBP 20 µM
  Kd: 15 ± 6.8 µM
[6]; KD fitted to SAXS Rg curves, DESY, 4s exposure, HisBP 40 µM
  Kd: 150 ± 52 µM
[6]; KD fitted to SAXS Rg curves, DESY, 4s exposure, HisBP 80 µM
  Kd: 27 ± 7.1 µM
[6]; KD fitted to SAXS Rg curves, Diamond, 40s exposure, HisBP 20 µM
  Kd: 0.81 µM
[6]; KD fitted to SAXS Rg curves, Diamond, 40s exposure, HisBP 40 µM
  Kd: 1.5 ± 4.4 µM
[6]; KD fitted to SAXS Rg curves, Diamond, 40s exposure, HisBP 80 µM
  Kd: 1.1 ± 2.5 µM
[6]; KD fitted to SAXS Rg curves, ESRF, 5s exposure, HisBP 38 µM
  Kd: 2.6 µM
[6]; KD fitted to SAXS Rg curves, ESRF, 5s exposure, HisBP 160 µM
  Kd: 0.39 ± 0.28 µM
[6]; KD fitted to SAXS Vc curves, AustSynch, 20s exposure, HisBP 19 µM
  Kd: 2.1 ± 6 µM
[6]; KD fitted to SAXS Vc curves, AustSynch, 20s exposure, HisBP 38 µM
  Kd: 3.7 ± 6.6 µM
[6]; KD fitted to SAXS Vc curves, AustSynch, 20s exposure, HisBP 76 µM
  Kd: 2 µM
[6]; KD fitted to SAXS Vc curves, DESY, 4s exposure, HisBP 20 µM
  Kd: 6.3 µM
[6]; KD fitted to SAXS Vc curves, DESY, 4s exposure, HisBP 80 µM
  Kd: 0.017 ± 0.041 µM
[6]; KD fitted to SAXS Vc curves, Diamond, 40s exposure, HisBP 20 µM
  Kd: 6.3 µM
[6]; KD fitted to SAXS Vc curves, Diamond, 40s exposure, HisBP 80 µM
  Kd: 0.038 µM
[6]; KD fitted to SAXS Vc curves, ESRF, 5s exposure, HisBP 7.6 µM
  Kd: 0.28 ± 0.72 µM
[6]; KD fitted to SAXS Vc curves, ESRF, 5s exposure, HisBP 38 µM
  Kd: 0.075 µM
[6]; KD fitted to SAXS Vc curves, ESRF, 5s exposure, HisBP 160 µM
  Kd: 0.91 µM
[6]; KD fitted to SAXS χlin. curves, AustSynch, 20s exposure, HisBP 19 µM
  Kd: 11 ± 7.6 µM
[6]; KD fitted to SAXS χlin. curves, AustSynch, 20s exposure, HisBP 38 µM
  Kd: 10 ± 2 µM
[6]; KD fitted to SAXS χlin. curves, AustSynch, 20s exposure, HisBP 76 µM
  Kd: 11 ± 1.4 µM
[6]; KD fitted to SAXS χlin. curves, DESY, 4s exposure, HisBP 20 µM
  Kd: 4.1 ± 2.1 µM
[6]; KD fitted to SAXS χlin. curves, DESY, 4s exposure, HisBP 40 µM
  Kd: 140 ± 42 µM
[6]; KD fitted to SAXS χlin. curves, DESY, 4s exposure, HisBP 80 µM
  Kd: 42 ± 6.7 µM
[6]; KD fitted to SAXS χlin. curves, Diamond, 40s exposure, HisBP 20 µM
  Kd: 1.4 µM
[6]; KD fitted to SAXS χlin. curves, Diamond, 40s exposure, HisBP 40 µM
  Kd: 23 ± 7.1 µM
[6]; KD fitted to SAXS χlin. curves, Diamond, 40s exposure, HisBP 80 µM
  Kd: 0.012 ± 0.02 µM
[6]; KD fitted to SAXS χlin. curves, ESRF, 5s exposure, HisBP 7.6 µM
  Kd: 1.9 ± 2 µM
[6]; KD fitted to SAXS χlin. curves, ESRF, 5s exposure, HisBP 152 µM
  Kd: 0.091 µM
[7]
  Kd: 0.56 µM
